Measurements reported in patent publication US20140357713A1, “ANTIMICROBIAL COMPOUNDS AND METHODS OF USE” (NexMed Holdings, Inc., priority 2012, published 2014).
Where a name gives a salt, the structure may show the parent alone. Read-outs that look alike come from different tables or passages of the source.

Legend:
[1] = Solubility (Sol., Table 1); type: physicochemical
pH (Table 1) = type: physicochemical
[2] = system: Escherichia coli (ATCC 25922); experiment: Minimum inhibitory concentration (MIC) assay, Example 33; type: cell-based; details: Escherichia coli
Protocol: (§1) Thirty compounds were tested for antimicrobial activity using standard procedures and standard strains for both the minimum inhibitory concentration (MIC) assay and a time kill study. Both the MIC assay and the time kill study were performed according to Clinical and Laboratory Standards Institute (CLSI) guidelines. Three bacteria strains, Escherichia coli (ATCC 25922), Pseudomonas aeruginosa (ATCC 27853), Staphulococcus aureus (ATCC 29213), and two fungus strains, Candida albicans (ATCC 90029) and Aspergillus niger (CMCC 98003), were used in the experiments.
(§2) Preparation of cultures. Before the experiment, two days for the bacteria strains and five days for fungus strains, an aliquot was removed from the cultures frozen at −80° C. Medium was added to the surface of an appropriate agar plate and streaked with the aliquot. The plate was incubated for 20 to 24 hrs at 35±2° C. for bacteria or for 5 days at 26-30° C. in incubator for fungus. From the resulting growth on each plate, one isolated colony of similar morphology was selected and re-streaked onto a fresh agar plate using a sterile disposable loop. The plate was incubated 20 to 24 hrs at 35±2° C. or for 5 days at 26-30° C. in an incubator.
(§3) Preparation of Assay Plates with Medium and Drugs. On the day of the assay, CAMHB medium or RPMI 1640 medium was removed from 4′C storage and allowed to reach room temperature. Ninety microliters (μL) of room temperature CAMHB or RPMI 1640 (supplemented with the appropriate concentration of DMSO, if required) were added to rows B-G of each 96-well microtiter plate. Using a pipette, duplicate 180 μL aliquots of each drug stock solution were added to column 1 (e.g. A1 and B1 or C1 and D1 or E1 and F1 or G1 and H1). Using a multichannel pipette or the Provision 2000 liquid handler, serial 2-fold dilutions (90 μL) were performed in each row across the plate to row G. Eighty μL of compounds dilutions were transferred to a 96-deep well plate. Medium, 1,520 μL of CAMHB or RPMI 1640, was added to each well. The contents of the wells were mixed thoroughly. A 50 μL aliquot of each of the resulting mixtures was transferred to a 96-well assay plate.
(§4) For bacteria, a sterile inoculating loop was used to transfer growth from an agar plate culture into about 5 mL of test medium. Using a turbidity meter, this inoculum was adjusted so that its density (600 nm) was equivalent to a 0.5 McFarland barium sulfate standard (0.08-0.13). The resulting suspension was diluted 1:100 into medium to obtain two times test inoculums.
(§5) For Aspergillus niger, sporulating colonies were covered with RPMI 1640, and a suspension was prepared by gently probing the colonies with the tip of a transfer pipette. The suspension was transferred to a sterile tube and mixed with a vortex mixer for 15 seconds. The densities at 530 nm were adjusted to 0.09-0.13 for each sample. The resulting suspension was diluted 1:50 with the medium to obtain two times test inoculums. Fifty μL/well of this inoculum suspension was added to wells of drug-containing plates (1:2 dilution). Plates were incubated at 35° C. for the appropriate times. The MIC was read and recorded according to CLSI guidelines.
(§6) The MIC values for thirty compounds against Escherichia coli, Pseudomonas aeruginosa, Staphulococcus aureus, Candida albicans, and Aspergillus niger were recorded and are presented in Table 3 and Table 4.

[3] = system: Pseudomonas aeruginosa (ATCC 27853); experiment: as above; type: cell-based; details: Pseudomonas aeruginosa
Protocol: as §1, §2, §3, §4, §5, §6

[4] = system: Staphulococcus aureus (ATCC 29213); experiment: as above; type: cell-based, Staphylococcus aureus; details: Staphylococcus aureus
Protocol: as §1, §2, §3, §4, §5, §6

[5] = system: Candida albicans (ATCC 90029); experiment: as above; type: cell-based; details: Candida albicans
Protocol: as §1, §2, §3
For Candida albicans, a sterile inoculating loop was used to transfer growth from an agar plate culture into a tube with RPMI1640 medium. This inoculum was adjusted so that its density at 530 nm was in the ranges from 0.08 to 0.13. The resulting suspension was diluted 1:50 and further diluted 1:20 with the medium to obtain two times test inoculums.
as §5, §6

[6] = system: Aspergillus niger (CMCC 98003); experiment: as above; type: cell-based; details: for MIC: Aspergillus niger; for MIC Aspergillus niger: n = 2
Protocol: as §1, §2, §3, §5, §6

[7] = system: Escherichia coli (ATCC 25922); experiment: Time kill study, Example 33 (0 to 5 min); type: cell-based; details: 1×MIC
Protocol: as §1
(§7) The viable counts in Log10 CFU/mL at each time point were recorded.
(§8) Time kill studies. Strain suspensions were prepared as described above for the MIC test, and strain suspensions and compound solutions were mixed in the same volume. Samples were removed at specified times including 0 min, 30 sec, 1 min and 5 mins, were diluted in the test medium and streaked on agar. Colonies were counted after 24 to 48 hrs of incubation. […]

[8] = system: Pseudomonas aeruginosa (ATCC 27853); experiment: Time kill study, Example 33 (0 to 5 min); type: cell-based; details: 1×MIC
Protocol: as §1, §7, §8

[9] = system: Staphylococcus aureus (ATCC 29213); experiment: Time kill study, Example 33 (0 to 5 min); type: cell-based; details: 1×MIC
Protocol: as §1, §7, §8

[10] = ATCC25922, Table 19 summary of Example 33 and Example 35
[11] = ATCC25922, read-out: MIC E. coli, n = 1
[12] = ATCC25922, read-out: MIC E. coli, n = 2
[13] = ATCC27853, read-out: MIC P. aeruginosa, n = 1
[14] = ATCC27853, read-out: MIC P. aeruginosa, n = 2
[15] = ATCC29213, read-out: MIC S. aureus, n = 1
[16] = ATCC29213, read-out: MIC S. aureus, n = 2
[17] = ATCC90029, read-out: MIC Candida albicans, n = 1
[18] = ATCC90029, read-out: MIC Candida albicans, n = 2
[19] = CMCC98003, read-out: MIC Aspergillus niger

Compound	Sol. [1]	pH (pH (Table 1))	MIC [2, 10]	MIC [2, 11]	MIC [2, 12]	MIC ([3]; ATCC27853, Table 19 summary)	MIC [3, 13]	MIC [3, 14]	MIC ([4]; ATCC29213, Table 19 summary)	MIC [4, 15]	MIC [4, 16]	MIC ([5]; ATCC90029, Table 19 summary)	MIC [5, 17]	MIC [5, 18]	MIC ([6]; CMCC98003)	MIC [6, 19]	MIC Aspergillus niger [6]	Viable counts, Escherichia coli time kill study ([7]; 0.5 min)	Viable counts, Escherichia coli time kill study ([7]; 1 min)	Viable counts, Escherichia coli time kill study ([7]; 5 min)	other results
CCCCCCCCCCCCOC(=O)C(C(C)O)N(C)C (stereo not drawn) [Nex-51, Dodecyl 2-(dimethylamino)-3-hydroxybutanoate hydrochloride]	98%	0.56																			
CCCCCCCCCCCCOC(=O)C(C(C)C)N(C)C (stereo not drawn) [Nex-53, Dodecyl 2-(dimethylamino)-3-methylbutanoate hydrochloride]	44%	1.69	6250 µg/mL	6250 µg/mL	6250 µg/mL	6250 µg/mL	6250 µg/mL	6250 µg/mL	6250 µg/mL	6250 µg/mL	6250 µg/mL	> 12500 µg/mL	> 12500 µg/mL	> 12500 µg/mL	> 12500 µg/mL	> 12500 µg/mL	>12500 µg/mL	5.72 Log10 CFU/mL	5.71 Log10 CFU/mL	<3.52 Log10 CFU/mL	Viable counts, Escherichia coli time kill study ([7]; time 0): 5.64 Log10 CFU/mL; Viable counts, Pseudomonas aeruginosa time kill study ([8]; 0.5 min): 5.54 Log10 CFU/mL; Viable counts, Pseudomonas aeruginosa time kill study ([8]; 1 min): 5.47 Log10 CFU/mL; Viable counts, Pseudomonas aeruginosa time kill study ([8]; 5 min): 5.49 Log10 CFU/mL; Viable counts, Pseudomonas aeruginosa time kill study ([8]; time 0): 5.54 Log10 CFU/mL; Viable counts, Staphylococcus aureus time kill study ([9]; 0.5 min): 6.2 Log10 CFU/mL; Viable counts, Staphylococcus aureus time kill study ([9]; 1 min): 6.24 Log10 CFU/mL; Viable counts, Staphylococcus aureus time kill study ([9]; 5 min): 6.21 Log10 CFU/mL; Viable counts, Staphylococcus aureus time kill study ([9]; time 0): 6.35 Log10 CFU/mL
CCCCCCCCCCCCOC(=O)C(CC(C)C)N(C)C (stereo not drawn) [Nex-55, Dodecyl 2-(dimethylamino)-4-methylpentanoate hydrochloride]	50%	1.84	6250 µg/mL	6250 µg/mL	6250 µg/mL	6250 µg/mL	6250 µg/mL	6250 µg/mL	6250 µg/mL	6250 µg/mL	6250 µg/mL	> 12500 µg/mL	> 12500 µg/mL	> 12500 µg/mL	> 12500 µg/mL	> 12500 µg/mL	>12500 µg/mL	5.71 Log10 CFU/mL	5.51 Log10 CFU/mL	4.6 Log10 CFU/mL	Viable counts, Escherichia coli time kill study ([7]; time 0): 5.68 Log10 CFU/mL; Viable counts, Pseudomonas aeruginosa time kill study ([8]; 0.5 min): 5.61 Log10 CFU/mL; Viable counts, Pseudomonas aeruginosa time kill study ([8]; 1 min): 5.58 Log10 CFU/mL; Viable counts, Pseudomonas aeruginosa time kill study ([8]; 5 min): 5.45 Log10 CFU/mL; Viable counts, Pseudomonas aeruginosa time kill study ([8]; time 0): 5.37 Log10 CFU/mL; Viable counts, Staphylococcus aureus time kill study ([9]; 0.5 min): 6.22 Log10 CFU/mL; Viable counts, Staphylococcus aureus time kill study ([9]; 1 min): 6.21 Log10 CFU/mL; Viable counts, Staphylococcus aureus time kill study ([9]; 5 min): 6.18 Log10 CFU/mL; Viable counts, Staphylococcus aureus time kill study ([9]; time 0): 6.23 Log10 CFU/mL
